Measurements: ChEMBL document CHEMBL5634130, “Exploring the structural-activity relationship of hexahydropyrazino[1,2-d]pyrido[3,2-b][1,4]oxazine derivatives as potent and orally-bioavailable PARP7 inhibitors” (Eur J Med Chem, 2023)
Values after ≈ are worked out from the molar mass of the structure shown.

Tests used:
[1] = molecular target: T1, Protein mono-ADP-ribosyltransferase TIPARP (Homo sapiens, UniProt Q7Z3E1); test: Inhibition of PARP7 (unknown origin) using histone as substrate incubated for 1 hr by chemiluminescence assay
T1 sequence (Q7Z3E1 whole entry): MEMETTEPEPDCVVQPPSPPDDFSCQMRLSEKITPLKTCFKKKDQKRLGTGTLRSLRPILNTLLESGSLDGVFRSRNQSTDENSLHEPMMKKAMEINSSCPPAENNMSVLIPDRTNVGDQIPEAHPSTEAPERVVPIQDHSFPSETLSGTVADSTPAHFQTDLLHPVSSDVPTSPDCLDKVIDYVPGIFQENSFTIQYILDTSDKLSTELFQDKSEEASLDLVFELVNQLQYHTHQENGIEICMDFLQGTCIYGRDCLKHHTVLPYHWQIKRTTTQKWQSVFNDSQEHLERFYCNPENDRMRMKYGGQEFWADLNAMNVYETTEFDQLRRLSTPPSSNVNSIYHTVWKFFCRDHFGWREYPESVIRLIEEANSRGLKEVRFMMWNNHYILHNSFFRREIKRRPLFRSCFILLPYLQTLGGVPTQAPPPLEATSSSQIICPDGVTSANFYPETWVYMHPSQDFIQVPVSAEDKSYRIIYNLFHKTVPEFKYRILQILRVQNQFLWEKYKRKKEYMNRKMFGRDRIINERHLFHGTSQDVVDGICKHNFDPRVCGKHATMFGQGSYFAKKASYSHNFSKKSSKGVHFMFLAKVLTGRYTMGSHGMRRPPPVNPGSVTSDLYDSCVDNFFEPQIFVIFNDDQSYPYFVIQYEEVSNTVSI

[2] = Metabolic stability in monkey liver microsomes assessed as intrinsic clearance preincubated for 5 mins followed by NADPH addition measured for 1 hr by LC-MS analysis; format: ADME, Macaca mulatta, Microsome; settings: rhesus monkey, time 65 min, read-out: CLH
[3] = Clearance in fasted Beagle dog at 2 mg/kg, iv measured for 24 hrs by LC-MS analysis; format: ADME, organism-based, Canis lupus familiaris; settings: in vivo
[4] = molecular target: Protein mono-ADP-ribosyltransferase PARP14 (Homo sapiens, UniProt Q460N5); test: Inhibition of PARP14 (unknown origin)
Chain of Protein mono-ADP-ribosyltransferase PARP14 (Q460N5 whole entry): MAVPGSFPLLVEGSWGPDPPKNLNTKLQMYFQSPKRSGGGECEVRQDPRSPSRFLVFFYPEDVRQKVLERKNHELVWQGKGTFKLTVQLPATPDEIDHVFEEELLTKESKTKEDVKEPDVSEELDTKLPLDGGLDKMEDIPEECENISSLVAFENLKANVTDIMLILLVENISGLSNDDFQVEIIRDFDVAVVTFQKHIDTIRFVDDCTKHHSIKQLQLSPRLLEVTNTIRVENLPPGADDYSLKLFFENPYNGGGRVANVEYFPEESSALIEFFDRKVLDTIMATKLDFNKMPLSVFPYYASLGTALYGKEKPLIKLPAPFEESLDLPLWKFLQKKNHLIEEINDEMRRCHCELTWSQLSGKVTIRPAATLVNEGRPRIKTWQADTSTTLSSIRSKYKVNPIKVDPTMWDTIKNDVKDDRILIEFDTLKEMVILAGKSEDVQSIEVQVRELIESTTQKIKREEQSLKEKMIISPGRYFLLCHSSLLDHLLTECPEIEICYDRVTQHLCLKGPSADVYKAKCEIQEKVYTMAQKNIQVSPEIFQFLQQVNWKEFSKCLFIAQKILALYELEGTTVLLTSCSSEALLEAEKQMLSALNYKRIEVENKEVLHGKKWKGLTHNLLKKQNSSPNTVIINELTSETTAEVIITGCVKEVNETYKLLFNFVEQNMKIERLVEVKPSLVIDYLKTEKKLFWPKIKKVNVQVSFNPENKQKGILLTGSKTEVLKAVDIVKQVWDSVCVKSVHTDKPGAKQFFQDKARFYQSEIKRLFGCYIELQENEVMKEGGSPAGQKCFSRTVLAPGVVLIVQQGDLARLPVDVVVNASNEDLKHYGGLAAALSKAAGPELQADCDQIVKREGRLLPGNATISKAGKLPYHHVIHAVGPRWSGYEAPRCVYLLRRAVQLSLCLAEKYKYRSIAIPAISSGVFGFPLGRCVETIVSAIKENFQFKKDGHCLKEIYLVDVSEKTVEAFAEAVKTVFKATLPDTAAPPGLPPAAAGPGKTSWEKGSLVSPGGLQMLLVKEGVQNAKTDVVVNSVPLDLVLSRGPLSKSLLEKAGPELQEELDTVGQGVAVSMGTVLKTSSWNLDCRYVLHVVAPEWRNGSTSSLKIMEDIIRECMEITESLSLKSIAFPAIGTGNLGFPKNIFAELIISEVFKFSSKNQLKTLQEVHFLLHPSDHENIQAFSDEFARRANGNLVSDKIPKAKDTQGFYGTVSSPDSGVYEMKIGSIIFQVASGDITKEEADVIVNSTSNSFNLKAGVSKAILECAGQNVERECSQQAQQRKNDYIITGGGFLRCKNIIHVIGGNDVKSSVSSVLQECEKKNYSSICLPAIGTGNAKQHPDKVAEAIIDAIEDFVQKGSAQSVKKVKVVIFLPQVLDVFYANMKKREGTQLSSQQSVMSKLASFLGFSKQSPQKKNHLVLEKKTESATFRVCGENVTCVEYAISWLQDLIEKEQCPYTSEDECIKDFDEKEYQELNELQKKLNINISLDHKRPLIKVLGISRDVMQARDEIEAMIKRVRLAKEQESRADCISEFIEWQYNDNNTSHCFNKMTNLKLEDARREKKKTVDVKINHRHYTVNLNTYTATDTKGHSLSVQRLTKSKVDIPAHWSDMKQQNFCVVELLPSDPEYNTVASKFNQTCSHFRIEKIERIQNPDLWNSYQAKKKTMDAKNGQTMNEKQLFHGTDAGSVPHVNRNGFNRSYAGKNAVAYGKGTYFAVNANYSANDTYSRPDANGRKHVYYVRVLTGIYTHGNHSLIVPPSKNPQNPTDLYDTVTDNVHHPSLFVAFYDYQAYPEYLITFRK

[5] = AUC in fasted ICR mouse at 10 mg/kg, po measured for 24 hrs by LC-MS analysis; format: ADME, organism-based; settings: in vivo
[6] = Kinetic solubility of compound at pH 2; format: physicochemical; settings: buffer, read-out: Kinetic_solubility
[7] = Apparent permeability across apical to basolateral side in MDCKII-MDR1 cells incubated for 2 hrs by LC-MS analysis; format: ADME, cell-based, Canis lupus familiaris; settings: dog, MDCK-MDR1
Cytochrome P450 3A4 = Cytochrome P450 3A4 (Homo sapiens, UniProt P08684); test: Inhibition of CYP3A4 in human liver microsomes using midazolam as substrate preincubated for 10 mins followed by substrate addition measured for 30 mins by LC-MS analysis; format: ADME, Microsome
Chain of Cytochrome P450 3A4 (P08684 whole entry): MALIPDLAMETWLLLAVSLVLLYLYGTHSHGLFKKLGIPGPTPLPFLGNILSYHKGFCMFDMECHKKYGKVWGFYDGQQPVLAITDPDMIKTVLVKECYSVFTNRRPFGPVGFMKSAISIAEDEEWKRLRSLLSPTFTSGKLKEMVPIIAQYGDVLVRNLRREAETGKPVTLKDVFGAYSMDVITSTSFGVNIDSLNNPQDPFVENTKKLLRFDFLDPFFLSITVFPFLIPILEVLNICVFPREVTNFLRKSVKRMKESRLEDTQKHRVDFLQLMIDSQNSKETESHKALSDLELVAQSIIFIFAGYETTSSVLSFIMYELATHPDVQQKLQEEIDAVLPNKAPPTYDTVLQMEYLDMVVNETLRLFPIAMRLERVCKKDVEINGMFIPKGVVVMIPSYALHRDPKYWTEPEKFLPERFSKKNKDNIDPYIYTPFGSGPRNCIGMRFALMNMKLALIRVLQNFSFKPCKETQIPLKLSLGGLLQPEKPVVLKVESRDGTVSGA

[8] = Half life in fasted Beagle dog at 2 mg/kg, iv measured for 24 hrs by LC-MS analysis; format: ADME, organism-based, Canis lupus familiaris; settings: in vivo
[9] = Plasma protein binding in rat at 2 uM incubated for 1 hr by LC/MS analysis; format: ADME, cell-free; settings: read-out: PPB (converted)
[10] = Cmax in fasted ICR mouse at 10 mg/kg, po measured for 24 hrs by LC-MS analysis; format: ADME, organism-based; settings: in vivo
Cytochrome P450 1A2 = molecular target: T2, Cytochrome P450 1A2 (Homo sapiens, UniProt P05177); test: Inhibition of CYP1A2 in human liver microsomes using phenacetin as substrate preincubated for 10 mins followed by substrate addition measured for 30 mins by LC-MS analysis; format: ADME, Microsome
T2 sequence (P05177 whole entry): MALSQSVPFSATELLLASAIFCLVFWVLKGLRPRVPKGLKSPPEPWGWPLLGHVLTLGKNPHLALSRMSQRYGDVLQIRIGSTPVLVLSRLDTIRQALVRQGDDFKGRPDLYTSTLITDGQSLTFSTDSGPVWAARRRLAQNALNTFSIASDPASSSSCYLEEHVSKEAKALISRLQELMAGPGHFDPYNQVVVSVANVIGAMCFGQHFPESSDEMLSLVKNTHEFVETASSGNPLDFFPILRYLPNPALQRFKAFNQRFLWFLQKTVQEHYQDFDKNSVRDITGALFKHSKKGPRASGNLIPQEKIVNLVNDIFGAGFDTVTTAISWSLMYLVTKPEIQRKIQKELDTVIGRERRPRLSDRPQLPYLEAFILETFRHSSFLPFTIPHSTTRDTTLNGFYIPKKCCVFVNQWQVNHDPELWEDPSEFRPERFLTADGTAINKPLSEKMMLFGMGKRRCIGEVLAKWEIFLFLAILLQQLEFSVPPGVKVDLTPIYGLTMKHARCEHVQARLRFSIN

[11] = Apparent permeability across basolateral to apical side in MDCKII-MDR1 cells incubated for 2 hrs by LC-MS analysis; format: ADME, cell-based, Canis lupus familiaris; settings: dog, MDCK-MDR1
[12] = Plasma protein binding in human at 2 uM incubated for 1 hr by LC/MS analysis; format: ADME, cell-free; settings: read-out: PPB (converted)
[13] = Metabolic stability in human liver microsomes assessed as intrinsic clearance preincubated for 5 mins followed by NADPH addition measured for 1 hr by LC-MS analysis; format: ADME, Microsome; settings: time 65 min, read-out: CLH
[14] = Kinetic solubility of compound at pH 6.5; format: physicochemical; settings: buffer, read-out: Kinetic_solubility
[15] = Toxicity in […] SCID mouse model xenografted with human NCI-H1373 cells assessed as body weight loss at 30 mg/kg, po measured for 21 days; format: organism-based; settings: in vivo, 504 h, time 21 day
[16] = molecular target: Poly [ADP-ribose] polymerase 1 (Homo sapiens, UniProt P09874); test: Inhibition of PARP1 (unknown origin)
Chain of Poly [ADP-ribose] polymerase 1 (P09874 whole entry): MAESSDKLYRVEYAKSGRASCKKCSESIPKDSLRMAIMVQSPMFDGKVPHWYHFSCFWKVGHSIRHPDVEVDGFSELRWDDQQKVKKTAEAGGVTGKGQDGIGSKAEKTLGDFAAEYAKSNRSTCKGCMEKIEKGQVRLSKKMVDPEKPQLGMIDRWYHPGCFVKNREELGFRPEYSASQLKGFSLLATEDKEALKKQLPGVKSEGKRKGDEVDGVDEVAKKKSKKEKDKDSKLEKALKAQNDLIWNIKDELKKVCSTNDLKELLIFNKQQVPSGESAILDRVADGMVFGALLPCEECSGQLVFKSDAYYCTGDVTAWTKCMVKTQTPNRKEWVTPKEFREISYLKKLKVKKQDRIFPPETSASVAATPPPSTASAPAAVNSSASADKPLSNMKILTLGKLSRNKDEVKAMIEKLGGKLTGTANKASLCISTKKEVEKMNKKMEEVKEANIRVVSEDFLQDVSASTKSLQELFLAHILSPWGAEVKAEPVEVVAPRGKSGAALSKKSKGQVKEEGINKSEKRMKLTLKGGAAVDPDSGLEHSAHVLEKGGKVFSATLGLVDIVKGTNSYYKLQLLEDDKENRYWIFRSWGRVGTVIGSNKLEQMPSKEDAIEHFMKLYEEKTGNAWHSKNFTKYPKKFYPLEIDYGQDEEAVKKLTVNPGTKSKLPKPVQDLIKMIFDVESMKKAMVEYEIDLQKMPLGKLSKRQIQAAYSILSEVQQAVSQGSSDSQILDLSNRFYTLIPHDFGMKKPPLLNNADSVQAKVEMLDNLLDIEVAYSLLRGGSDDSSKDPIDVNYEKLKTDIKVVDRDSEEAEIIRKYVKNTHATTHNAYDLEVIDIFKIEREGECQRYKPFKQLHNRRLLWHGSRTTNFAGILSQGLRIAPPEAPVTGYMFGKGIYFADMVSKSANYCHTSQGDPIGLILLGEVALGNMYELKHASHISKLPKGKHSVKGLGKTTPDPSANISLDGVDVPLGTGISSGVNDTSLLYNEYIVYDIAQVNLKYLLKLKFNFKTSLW

[17] = Half life in fasted Beagle dog at 10 mg/kg, po measured for 24 hrs by LC-MS analysis; format: ADME, organism-based, Canis lupus familiaris; settings: in vivo
[18] = AUC in fasted Beagle dog at 10 mg/kg, po measured for 24 hrs by LC-MS analysis; format: ADME, organism-based, Canis lupus familiaris; settings: in vivo
[19] = Toxicity in […] SCID mouse model xenografted with human NCI-H1373 cells assessed as animal death at 30 mg/kg, po measured for 21 days; format: organism-based; settings: in vivo, 504 h, time 21 day
[20] = Oral bioavailability in fasted Beagle dog at 10 mg/kg measured for 24 hrs by LC-MS analysis; format: ADME, organism-based, Canis lupus familiaris; settings: in vivo
[21] = Plasma protein binding in mouse at 2 uM incubated for 1 hr by LC/MS analysis; format: ADME, cell-free; settings: read-out: PPB (converted)
[22] = Efflux ratio of apparent permeability across basolateral to apical side over apical to basolateral side in MDCKII-MDR1 cells incubated for 2 hrs by LC-MS analysis; format: ADME, cell-based, Canis lupus familiaris; settings: dog, MDCK-MDR1
[23] = Plasma protein binding in monkey at 2 uM incubated for 1 hr by LC/MS analysis; format: ADME, cell-free, Macaca mulatta; settings: rhesus monkey, read-out: PPB (converted)
[24] = AUC in fasted ICR mouse at 2 mg/kg, iv measured for 24 hrs by LC-MS analysis; format: ADME, organism-based; settings: in vivo
[25] = Metabolic stability in rat liver microsomes assessed as intrinsic clearance preincubated for 5 mins followed by NADPH addition measured for 1 hr by LC-MS analysis; format: ADME, Microsome; settings: time 65 min, read-out: CLH
[26] = Metabolic stability in mouse liver microsomes assessed as intrinsic clearance preincubated for 5 mins followed by NADPH addition measured for 1 hr by LC-MS analysis; format: ADME, Microsome; settings: time 65 min, read-out: CLH
[27] = molecular target: Voltage-gated inwardly rectifying potassium channel KCNH2 (Homo sapiens, UniProt Q12809); test: Inhibition of hERG transfected in HEK293 cells at <10 uM by electrography; format: toxicity, cell-based; settings: hek293, 10 µM
Chain of Voltage-gated inwardly rectifying potassium channel KCNH2 (Q12809 whole entry): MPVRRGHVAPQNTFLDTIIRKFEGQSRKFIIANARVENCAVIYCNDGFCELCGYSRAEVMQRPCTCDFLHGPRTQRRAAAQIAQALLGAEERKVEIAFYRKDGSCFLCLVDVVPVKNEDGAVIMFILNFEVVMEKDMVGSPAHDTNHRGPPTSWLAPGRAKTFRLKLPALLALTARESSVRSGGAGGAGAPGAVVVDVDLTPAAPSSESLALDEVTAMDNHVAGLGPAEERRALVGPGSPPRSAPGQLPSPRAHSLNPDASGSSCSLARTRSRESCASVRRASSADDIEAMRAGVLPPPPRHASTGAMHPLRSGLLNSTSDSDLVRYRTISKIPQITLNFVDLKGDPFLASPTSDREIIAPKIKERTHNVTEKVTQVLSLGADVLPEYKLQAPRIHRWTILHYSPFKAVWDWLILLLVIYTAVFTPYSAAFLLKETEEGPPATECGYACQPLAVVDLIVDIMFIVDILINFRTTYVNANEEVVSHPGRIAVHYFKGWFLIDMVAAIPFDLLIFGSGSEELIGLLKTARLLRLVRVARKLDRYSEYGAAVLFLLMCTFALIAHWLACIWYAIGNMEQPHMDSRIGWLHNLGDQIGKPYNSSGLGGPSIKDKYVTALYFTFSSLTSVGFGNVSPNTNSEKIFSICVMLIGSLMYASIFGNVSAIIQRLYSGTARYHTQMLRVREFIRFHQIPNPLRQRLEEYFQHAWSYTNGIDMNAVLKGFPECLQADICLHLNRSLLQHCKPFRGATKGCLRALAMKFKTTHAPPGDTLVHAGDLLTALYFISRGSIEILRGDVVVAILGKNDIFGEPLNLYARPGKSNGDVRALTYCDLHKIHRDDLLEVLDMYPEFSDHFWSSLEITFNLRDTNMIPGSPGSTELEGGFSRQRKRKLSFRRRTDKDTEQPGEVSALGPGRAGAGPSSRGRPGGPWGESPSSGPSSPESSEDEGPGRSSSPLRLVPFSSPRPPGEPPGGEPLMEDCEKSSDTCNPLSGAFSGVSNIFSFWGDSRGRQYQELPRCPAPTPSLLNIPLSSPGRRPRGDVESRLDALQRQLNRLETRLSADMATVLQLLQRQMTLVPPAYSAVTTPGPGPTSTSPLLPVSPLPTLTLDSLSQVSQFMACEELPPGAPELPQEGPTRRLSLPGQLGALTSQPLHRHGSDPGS

O=C(CCOC[C@@H]1CCN1c1cn[nH]c(=O)c1C(F)(F)F)N1CCN2c3ncc(C(F)(F)F)cc3OC[C@@H]2C1
IC50 [1]: 0.56 nM | CLint scaled [2]: 79.2 mL/min/kg | clearance [3]: 7.5 mL/min/kg | IC50 [4]: > 1000 nM | AUC [5]: 1146 ng·h/mL | solubility kinetic [6]: 166 µM (≈ 93.4 µg/mL) | Papp A→B at 2 h [7]: 0.202 ×10⁻⁶ cm/s | IC50 (Cytochrome P450 3A4): > 30000 nM | half-life [8]: 1.3 h | fraction unbound at 1 h, 2 µM [9]: 0.044 | Cmax [10]: 752 ng/mL | IC50 (Cytochrome P450 1A2): > 30000 nM | Papp B→A at 2 h [11]: 3.3 ×10⁻⁶ cm/s | fraction unbound at 1 h, 2 µM [12]: 0.002 | CLint scaled [13]: 19.8 mL/min/kg | solubility kinetic [14]: 154 µM (≈ 86.6 µg/mL) | Activity [15]: Non-Toxic | IC50 [16]: 492 nM | t1/2 [17]: 3.6 h | AUC [18]: 7860 ng·h/mL | Activity [19]: Non-Toxic | bioavailability [20]: 45.2% | fraction unbound at 1 h, 2 µM [21]: 0.019 | efflux ratio at 2 h [22]: 16.3 | fraction unbound at 1 h, 2 µM [23]: 0.004 | AUC at 24 h [24]: 680 ng·h/mL | CLint scaled [25]: 88.8 mL/min/kg | CLint scaled [26]: 141 mL/min/kg | inhibition (INH) [27]: Not Active
